Data reported in patent US12679878B2, “CRF2 receptor agonists and their use in therapy” (SANOFI, priority 2020, dated 2026).
Where two headings read alike, the source gives them in different places. Blank lines part the entries; values can stand above or below the molecule they belong to. Starred links: 1 amine or outer side, 2 acyl side, 3 side chain; linkers in the order of their positions; H or OH if unused. Non-standard residues stand in square brackets, D forms with d. Residues, ends and D or L forms follow the SMILES beside them. Groups on a side chain read outwards from the residue. No end group written: not given here. *: point of attachment. C18 diacid = O=C(O)CCCCCCCCCCCCCCCCC(=O)*; γGlu = O=C(O)[C@H](CCC(=O)[*:2])N[*:1]; Palmitoyl = CCCCCCCCCCCCCCCC(=O)*; AEEA = NCCOCCOCC(=O)O; Aib = CC(C)(N)C(=O)O

Legend:
[1] = Solubility in buffer systems by UPLC-UV (Example 13); assay type: physicochemical; conditions: pH 4.5, Solubility in Buffer B [mg/ml]
In short: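 Quantitation used UV peak area from UPLC of the 1:10-diluted supernatant, set against a reference-compound standard curve with extinction coefficients adjusted for amino acid sequence.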

[2] = biological target: T1, human CRF2α receptor (Homo sapiens, UniProt Q13324); experiment: cAMP agonism at human CRF2 α receptor in TeloHEAC cells (Example 7); assay type: cell-based; conditions: cAMP HTRF, TeloHEAC cells stably expressing human CRF2 α
T1 construct: expressed in transfected cells; host or cells: TeloHEAC
T1 sequence (Q13324 1-411): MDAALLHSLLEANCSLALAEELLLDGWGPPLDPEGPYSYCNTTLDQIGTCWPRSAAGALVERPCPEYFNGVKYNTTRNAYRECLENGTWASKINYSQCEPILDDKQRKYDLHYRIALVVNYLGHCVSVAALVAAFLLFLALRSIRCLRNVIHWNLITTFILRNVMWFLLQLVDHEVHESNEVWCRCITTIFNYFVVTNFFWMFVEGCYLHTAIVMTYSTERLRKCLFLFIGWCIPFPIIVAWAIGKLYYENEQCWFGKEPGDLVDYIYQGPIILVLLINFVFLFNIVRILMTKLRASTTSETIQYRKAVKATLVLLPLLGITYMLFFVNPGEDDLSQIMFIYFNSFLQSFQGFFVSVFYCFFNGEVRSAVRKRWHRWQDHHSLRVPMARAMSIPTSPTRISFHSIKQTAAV
In short: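 Cryopreserved cells are thawed, washed and resuspended in IBMX-containing (2 mM) HEPES-buffered HBSS with or without 0.1% HSA. Compound incubation runs 30 min at room temperature with 2000 cells per well, then cAMP is measured by time-resolved FRET. Potency is expressed as EC50, efficacy relative to urocortin 2 at 1000 nM.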

[3] = Physical stability, Thioflavin T fibrillation assay (Example 14); assay type: physicochemical; conditions: Buffer B: 100 mM acetate buffer, pH 4.5, 2.7 mg/ml m-cresol; 3 mg/ml; 37° C. shaking
In short: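 Fibrillation tendency was judged from lag time and rise in Thioflavin T fluorescence, measured every 20 minutes over eight replicates per sample. Peptides at 3 mg/ml final were held at 37° C under cycles of 10 s shaking (960 rpm) and 50 s rest.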

[4] = system: rat CRF2R α receptor; experiment: cAMP agonism at rat CRF2R α receptor in A7R5 rat aortic smooth muscle cells (Example 8); assay type: cell-based; conditions: cAMP HTRF, A7R5 rat aortic smooth muscle cell line, 0% HSA
In short: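 Potency (EC50) is the concentration reaching half-maximal activation, with responses scaled so that 1000 nM urocortin 2 equals 100%. Intracellular cAMP was quantified by homogeneous time-resolved fluorescence at 665/620 nm, 1 h after lysis-buffer reagents. Compound stimulation lasted 30 min at room temperature on 2000 IBMX-treated (2 mM) cells per well in HEPES-buffered HBSS.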

[5] = Physical stability, dynamic light scattering assay (Example 15); assay type: physicochemical; conditions: Buffer B (100 mM acetate, pH 4.5, 2.7 mg/ml m-cresol)
Procedure: The physical stability of the compounds was also assessed using a dynamic light scattering assay.
In the present study, the physical stability of test compounds was assessed by determining the apparent hydrodynamic radius (Rh), the scattering intensity (I) and mass contribution (M) after synthesis (0 weeks) and after storage for 4 weeks at 40° C.
For each solution of test compound, the hydrodynamic radius Rh and the diffusion constant D (related via the Stokes-Einstein equation) were determined as an average over triplicates. Both parameters were determined at different compound concentrations (e.g., Rh1 and D1: 1 mg/ml and Rh5 and D5: 5 mg/ml, Rh10 and D10: 10 mg/mL) in the same buffer system. The difference of these parameters between low and high peptide concentration is a surrogate for the DLS interaction parameter kD. […] In addition, the hydrodynamic radius Rh and the corresponding Scattering Intensity (%) were determined as an average over duplicates. The target concentration was 300 μM. Therefore, solutions from solid samples were prepared in a buffer system with a concentration of 300 μM compound based on the previously determined % purity.
DLS measurements were performed on a DynaPro Plate Reader I (Wyatt Technology, Santa Barbara, CA, US) with an 837 nm laser light source at a scattering angle of 150°. The data were collected and processed with Dynamics V 7.8.1.3 or 7.8.2.18 software provided by Wyatt Technology.
Hydrodynamic radii were determined with non-negatively constrained least squares (NNLS) methods using DYNALS algorithms with regularization fit. […] Samples were tempered over 1 hour at +25° C. and visually inspected before analysis.
Samples were mixed with the aid of a pipet tip. Measurements were performed in 5 replicates. […] The plate was centrifuged for 2 minutes at 600 rcf. After removing the sealing, the samples were measured at +25° C.

[6] = biological target: human corticotropin-releasing factor 2α (CRF2α receptor) (human), Q13324; experiment: cell-based or functional assay

solubility at 1 h [1]: > 8700 µg/mL
EC50 ([2]; 0% HSA, read-out: EC50 [nM], 0% HSA): 0.05 nM
EC50 ([2]; 0.1% HSA, read-out: EC50 [nM], 0.1% HSA): 1.42 nM
Increase in FI (fluorescence intensity) [3]: No
Lag time [3]: >45 h
EC50 [4]: 0.2 nM
Apparent Rh [nm] 0 weeks ([5]; 0 weeks): 3.63 ± 0.14 nm
Scattering Intensity (I) [%] 0 weeks ([5]; 0 weeks): 100 ± 0%
Apparent Rh [nm] 4 weeks ([5]; 4 weeks at 40° C.): 3.59 ± 0.04 nm
Scattering Intensity (I) [%] 4 weeks ([5]; 4 weeks at 40° C.): 100 ± 0%
Molecule: CC[C@H](C)[C@H](N)C(=O)N[C@H](C(=O)N[C@@H](CC(C)C)C(=O)N[C@@H](CO)C(=O)N[C@@H](CC(C)C)C(=O)N[C@@H](CC(=O)O)C(=O)N[C@@H](C(=O)N1CCC[C@H]1C(=O)N[C@H](C(=O)N[C@@H](CCCCN)C(=O)N[C@@H](CC(C)C)C(=O)N[C@@H](CCCCNC(=O)COCCOCCNC(=O)COCCOCCNC(=O)CC[C@H](NC(=O)CCCCCCCCCCCCCCCCC(=O)O)C(=O)O)C(=O)N[C@@H](CCC(N)=O)C(=O)N[C@H](C(=O)N[C@@H](CC(C)C)C(=O)N[C@@H](CC(C)C)C(=O)N[C@@H](CCC(=O)O)C(=O)N[C@@H](CCC(N)=O)C(=O)N[C@@H](C)C(=O)N[C@@H](CCCNC(=N)N)C(=O)N[C@@H](CCC(N)=O)C(=O)N[C@@H](CCCCN)C(=O)NC(C)(C)C(=O)N[C@@H](CCC(N)=O)C(=O)N[C@@H](CCCNC(=N)N)C(=O)N[C@@H](CCC(=O)O)C(=O)N[C@@H](CCC(N)=O)C(=O)N[C@@H](C)C(=O)N[C@@H](CCC(=O)O)C(=O)N[C@@H](CCCCN)C(=O)N[C@@H](CC(N)=O)C(=O)N[C@@H](CCCCN)C(=O)N[C@@H](CCCNC(=N)N)C(=O)N[C@H](C(=O)N[C@@H](CC(C)C)C(=O)N[C@@H](CCC(=O)O)C(=O)N[C@@H](CCCNC(=N)N)C(=O)N[C@H](C(N)=O)C(C)C)[C@@H](C)CC)[C@@H](C)CC)[C@@H](C)CC)C(C)C)C(C)C [compound 142] (H-IVLSLD[dV]PIKLK([AEEA-AEEA-γGlu-C18 diacid])QILLEQARQK[Aib]QREQAEKNKRILERV-NH2; N-terminus assumed)

EC50 [nM], 0% HSA (cAMP, HTRF) [6]: 0.32 nM
B1: peptide of SEQ ID NO: 205 (peptide)
peptide: IVLSLD[dV]PIKLK([AEEA-AEEA-γGlu-Palmitoyl])QILLKQERQK[Aib]QREQAEKNKQILAQV-NH2
modifications: N-terminus assumed
SMILES: CCCCCCCCCCCCCCCC(=O)N[C@@H](CCC(=O)NCCOCCOCC(=O)NCCOCCOCC(=O)NCCCC[C@H](NC(=O)[C@H](CC(C)C)NC(=O)[C@H](CCCCN)NC(=O)[C@@H](NC(=O)[C@@H]1CCCN1C(=O)[C@H](NC(=O)[C@H](CC(=O)O)NC(=O)[C@H](CC(C)C)NC(=O)[C@H](CO)NC(=O)[C@H](CC(C)C)NC(=O)[C@@H](NC(=O)[C@@H](N)[C@@H](C)CC)C(C)C)C(C)C)[C@@H](C)CC)C(=O)N[C@@H](CCC(N)=O)C(=O)N[C@H](C(=O)N[C@@H](CC(C)C)C(=O)N[C@@H](CC(C)C)C(=O)N[C@@H](CCCCN)C(=O)N[C@@H](CCC(N)=O)C(=O)N[C@@H](CCC(=O)O)C(=O)N[C@@H](CCCNC(=N)N)C(=O)N[C@@H](CCC(N)=O)C(=O)N[C@@H](CCCCN)C(=O)NC(C)(C)C(=O)N[C@@H](CCC(N)=O)C(=O)N[C@@H](CCCNC(=N)N)C(=O)N[C@@H](CCC(=O)O)C(=O)N[C@@H](CCC(N)=O)C(=O)N[C@@H](C)C(=O)N[C@@H](CCC(=O)O)C(=O)N[C@@H](CCCCN)C(=O)N[C@@H](CC(N)=O)C(=O)N[C@@H](CCCCN)C(=O)N[C@@H](CCC(N)=O)C(=O)N[C@H](C(=O)N[C@@H](CC(C)C)C(=O)N[C@@H](C)C(=O)N[C@@H](CCC(N)=O)C(=O)N[C@H](C(N)=O)C(C)C)[C@@H](C)CC)[C@@H](C)CC)C(=O)O

EC50 [nM], 0% HSA (cAMP, HTRF) [6]: 2.98 nM
B2: peptide of SEQ ID NO: 210 (peptide)
peptide: IVLSLD[dV]PIKLK([AEEA-AEEA-γGlu-Palmitoyl])QILLKQERQKK[Aib]RQKAEKNKQILAQV-NH2
modifications: N-terminus assumed
SMILES: CCCCCCCCCCCCCCCC(=O)N[C@@H](CCC(=O)NCCOCCOCC(=O)NCCOCCOCC(=O)NCCCC[C@H](NC(=O)[C@H](CC(C)C)NC(=O)[C@H](CCCCN)NC(=O)[C@@H](NC(=O)[C@@H]1CCCN1C(=O)[C@H](NC(=O)[C@H](CC(=O)O)NC(=O)[C@H](CC(C)C)NC(=O)[C@H](CO)NC(=O)[C@H](CC(C)C)NC(=O)[C@@H](NC(=O)[C@@H](N)[C@@H](C)CC)C(C)C)C(C)C)[C@@H](C)CC)C(=O)N[C@@H](CCC(N)=O)C(=O)N[C@H](C(=O)N[C@@H](CC(C)C)C(=O)N[C@@H](CC(C)C)C(=O)N[C@@H](CCCCN)C(=O)N[C@@H](CCC(N)=O)C(=O)N[C@@H](CCC(=O)O)C(=O)N[C@@H](CCCNC(=N)N)C(=O)N[C@@H](CCC(N)=O)C(=O)N[C@@H](CCCCN)C(=O)N[C@@H](CCCCN)C(=O)NC(C)(C)C(=O)N[C@@H](CCCNC(=N)N)C(=O)N[C@@H](CCC(N)=O)C(=O)N[C@@H](CCCCN)C(=O)N[C@@H](C)C(=O)N[C@@H](CCC(=O)O)C(=O)N[C@@H](CCCCN)C(=O)N[C@@H](CC(N)=O)C(=O)N[C@@H](CCCCN)C(=O)N[C@@H](CCC(N)=O)C(=O)N[C@H](C(=O)N[C@@H](CC(C)C)C(=O)N[C@@H](C)C(=O)N[C@@H](CCC(N)=O)C(=O)N[C@H](C(N)=O)C(C)C)[C@@H](C)CC)[C@@H](C)CC)C(=O)O

EC50 [nM], 0% HSA (cAMP, HTRF) [6]: 0.09 nM
B3: peptide of SEQ ID NO: 206 (peptide)
peptide: IVLSLD[dV]PIKLK([AEEA-AEEA-γGlu-γGlu-Palmitoyl])QILLKQERQK[Aib]QREQAEKNKQILAQV-NH2
modifications: N-terminus assumed
SMILES: CCCCCCCCCCCCCCCC(=O)N[C@@H](CCC(=O)N[C@@H](CCC(=O)NCCOCCOCC(=O)NCCOCCOCC(=O)NCCCC[C@H](NC(=O)[C@H](CC(C)C)NC(=O)[C@H](CCCCN)NC(=O)[C@@H](NC(=O)[C@@H]1CCCN1C(=O)[C@H](NC(=O)[C@H](CC(=O)O)NC(=O)[C@H](CC(C)C)NC(=O)[C@H](CO)NC(=O)[C@H](CC(C)C)NC(=O)[C@@H](NC(=O)[C@@H](N)[C@@H](C)CC)C(C)C)C(C)C)[C@@H](C)CC)C(=O)N[C@@H](CCC(N)=O)C(=O)N[C@H](C(=O)N[C@@H](CC(C)C)C(=O)N[C@@H](CC(C)C)C(=O)N[C@@H](CCCCN)C(=O)N[C@@H](CCC(N)=O)C(=O)N[C@@H](CCC(=O)O)C(=O)N[C@@H](CCCNC(=N)N)C(=O)N[C@@H](CCC(N)=O)C(=O)N[C@@H](CCCCN)C(=O)NC(C)(C)C(=O)N[C@@H](CCC(N)=O)C(=O)N[C@@H](CCCNC(=N)N)C(=O)N[C@@H](CCC(=O)O)C(=O)N[C@@H](CCC(N)=O)C(=O)N[C@@H](C)C(=O)N[C@@H](CCC(=O)O)C(=O)N[C@@H](CCCCN)C(=O)N[C@@H](CC(N)=O)C(=O)N[C@@H](CCCCN)C(=O)N[C@@H](CCC(N)=O)C(=O)N[C@H](C(=O)N[C@@H](CC(C)C)C(=O)N[C@@H](C)C(=O)N[C@@H](CCC(N)=O)C(=O)N[C@H](C(N)=O)C(C)C)[C@@H](C)CC)[C@@H](C)CC)C(=O)O)C(=O)O
